Measured values reported in patent publication US9605026B2, “Hydrogen-bond surrogate peptides and peptidomimetics for p53 reactivation” (New York University, priority 2013, dated 2017).

Key:
[1] = test system: human normal IMR90 fibroblasts; assay: Cell proliferation (MTT) in IMR90 fibroblasts; format: cell-based; settings: for effect on efficacy of cis-platinum on proliferation: IMR90, 10 μM with cis-platinum 10 μM; for cell proliferation, single-agent: IMR90 human normal fibroblasts, 10 μM
Excerpt: FIG. 5A is an schematic illustration showing that CH1 has two distinct target sites. HIF1-α/p300 structures were used as guides to design helix mimetics that target site A and site B on the CH1 domain of p300. […] CH1iA (SEQ ID NO: 7) and CH1iB (SEQ ID NO: 8) were designed to mimic two helices from the C-terminal domain of HIF-1α. The peptides were locked into the helical conformation by the hydrogen bond surrogate method. FIG. 5C is a graph of p53 activity. UMSCC47 (left) and UMSCC74A (right) cells were co-transfected with a p53 Firefly luciferase reporter plasmid and a control Renilla luciferase plasmid. After 24 hours, cells were treated with control (vehicle), CH1iA (10 μM), or CH1iB (10 μM) for 24 hours. Firefly luciferase activity was normalized to Renilla luciferase activity to control for transfection efficiency. Data is normalized to control and presented as mean±SEM. *P<0.05, n=3. FIG. 5D is a western blot showing total and acetylated p53 levels. UMSCC47 (left) and UMSCC74A (right) cells were treated with control (vehicle), CH1iA (10 μM), or CH1iB (10 μM) for 24 hours. Cell lysates were immunoblotted with anti-p53 or anti-acetylated[K382]-p53 antibody. FIG. 5E is a pair of graphs of p300, p53, p21, miR-34a, and miR-200c expression. UMSCC47 (top panel) and UMSCC74A (bottom panel) cells were treated with control (vehicle), CH1iA (10 μM), or CH1iB (10 μM) for 24 hours. mRNA expression was determined using qPCR with validated TaqMan assays. Data is normalized to control cells and presented as mean±SEM. *P<0.01, control vs. CH1iB, n=3. FIG. 5F is a western blot showing HPV16 E6-p300 association. UMSCC47 cells were treated with control (vehicle), CH1iA (10 μM), or CH1iB (10 μM) for 24 hours. Cell lysates were extracted, immunoprecipitated with anti-p300 antibody, and immunoblotted with anti-E6 antibody. Cell lysates were immunoblotted with anti-E6 or anti-p300 antibody for input control. FIG. 5G is a set of graphs of cell proliferation. UMSCC47 (top left panel), UMSCC74A (top right panel), and IMR90 (human normal fibroblasts) (bottom panel) cells were treated with control (vehicle), CH1iA (10 μM), CH1iB (10 μM), cis-platinum (10 μM), CH1iA (10 μM) and cis-platinum (10 μM), or CH1iB (10 μM) and cis-platinum (10 μM) for 24, 48, or 72 hours. […]
Cell proliferation was assessed using the MTT reagent (Roche Molecular Biochemicals, Nutley, N.J.) to detect metabolic active cells. Absorbance was measured at 570 nm in the Spectra Max 190 ELISA reader (Molecular Devices, Sunnyvale, Calif.) after overnight incubation. […] Apoptotic cells were analyzed using BD FACS Calibur (BD Biosciences Corporation, Franklin Lakes, N.J.) at The Ohio State University Comprehensive Cancer Center Analytical Cytometry Core.

UMSCC47 cells = assay: Cell proliferation (MTT) in UMSCC47 cells; format: cell-based, human; settings: for cell proliferation, single-agent: UMSCC47, 10 μM, 24-72 hours
Excerpt: FIG. 5A is an schematic illustration showing that CH1 has two distinct target sites. HIF1-α/p300 structures were used as guides to design helix mimetics that target site A and site B on the CH1 domain of p300. […] CH1iA (SEQ ID NO: 7) and CH1iB (SEQ ID NO: 8) were designed to mimic two helices from the C-terminal domain of HIF-1α. The peptides were locked into the helical conformation by the hydrogen bond surrogate method. FIG. 5C is a graph of p53 activity. UMSCC47 (left) and UMSCC74A (right) cells were co-transfected with a p53 Firefly luciferase reporter plasmid and a control Renilla luciferase plasmid. After 24 hours, cells were treated with control (vehicle), CH1iA (10 μM), or CH1iB (10 μM) for 24 hours. Firefly luciferase activity was normalized to Renilla luciferase activity to control for transfection efficiency. Data is normalized to control and presented as mean±SEM. *P<0.05, n=3. FIG. 5D is a western blot showing total and acetylated p53 levels. UMSCC47 (left) and UMSCC74A (right) cells were treated with control (vehicle), CH1iA (10 μM), or CH1iB (10 μM) for 24 hours. Cell lysates were immunoblotted with anti-p53 or anti-acetylated[K382]-p53 antibody. FIG. 5E is a pair of graphs of p300, p53, p21, miR-34a, and miR-200c expression. UMSCC47 (top panel) and UMSCC74A (bottom panel) cells were treated with control (vehicle), CH1iA (10 μM), or CH1iB (10 μM) for 24 hours. mRNA expression was determined using qPCR with validated TaqMan assays. Data is normalized to control cells and presented as mean±SEM. *P<0.01, control vs. CH1iB, n=3. FIG. 5F is a western blot showing HPV16 E6-p300 association. UMSCC47 cells were treated with control (vehicle), CH1iA (10 μM), or CH1iB (10 μM) for 24 hours. Cell lysates were extracted, immunoprecipitated with anti-p300 antibody, and immunoblotted with anti-E6 antibody. Cell lysates were immunoblotted with anti-E6 or anti-p300 antibody for input control. FIG. 5G is a set of graphs of cell proliferation. UMSCC47 (top left panel), UMSCC74A (top right panel), and IMR90 (human normal fibroblasts) (bottom panel) cells were treated with control (vehicle), CH1iA (10 μM), CH1iB (10 μM), cis-platinum (10 μM), CH1iA (10 μM) and cis-platinum (10 μM), or CH1iB (10 μM) and cis-platinum (10 μM) for 24, 48, or 72 hours. Data is normalized to Day 0 and presented as mean±SEM. *P<0.01, control vs. CH1iB or cis-platinum, **P<0.01 CH1iB or cis-platinum vs. CH1iB and cis-platinum, n=6.
FIG. 7A is a graph of p53 transcriptional activity. UMSCC47 cells were co-transfected with a p53 Firefly luciferase reporter plasmid and a control Renilla luciferase plasmid. After 24 hours, cells were treated with control (vehicle) or CH1iB-mut (10 μM) for 24 hours. Firefly luciferase activity was normalized to Renilla luciferase activity to control for transfection efficiency. Data is presented as mean±SEM. *P<0.05, n=5. FIG. 7B is a graph of cell proliferation. UMSCC47 cells were treated with control (vehicle), CH1iB-mut (10 μM), cis-platinum (10 μM), or CH1iB-mut (10 μM) and cis-platinum (10 μM) for 24 or 48 hours. Data is normalized to Day 0 and presented as mean±SEM. *P<0.01, control or CH1iB-mut vs. cis-platinum or cis-platinum+CH1iB-mut, n=6.
Cell proliferation was assessed using the MTT reagent (Roche Molecular Biochemicals, Nutley, N.J.) to detect metabolic active cells. Absorbance was measured at 570 nm in the Spectra Max 190 ELISA reader (Molecular Devices, Sunnyvale, Calif.) after overnight incubation. […]

XELA*RALDQ-NH2 (ELXRALDQ; HBS: 4-pentenoic acid, N-allylalanine; C-terminal amide; CH1iB) [X 4-pentenoic acid, A* N-allylalanine]
effect on efficacy of cis-platinum on proliferation [1]: did not augment
cell proliferation, single-agent [1]: no effect
effect on anti-proliferative efficacy of cis-platinum (combination) (UMSCC47 cells; UMSCC47, 10 μM with cis-platinum 10 μM): potentiated
cell proliferation, single-agent (UMSCC47 cells): inhibited

XTAA*DCEYNAR (TAXDCEYNAR; HBS: 4-pentenoic acid, N-allylalanine; CH1iA) [X 4-pentenoic acid, A* N-allylalanine, reference compound]
effect on efficacy of cis-platinum on proliferation [1]: did not augment
cell proliferation, single-agent [1]: no effect
cell proliferation, single-agent (UMSCC47 cells): inactive
